Assay results: the NIST ThermoML archive (doi:10.1021/je2000606)
± gives the expanded uncertainty stated by the source.

What was measured:
[1] = refractive index (Na D-line) (dimensionless); conditions: 101.33 kPa, Liquid, Standard Abbe refractometry
[2] = 101.33 kPa, Liquid; for viscosity: Falling or rolling sphere viscometry; for mass density: Vibrating tube method
[3] = xn = mol fraction of the nth substance listed; conditions: 101 kPa, Liquid
[4] = refractive index (Na D-line) (dimensionless); xn = mol fraction of the nth substance listed; conditions: 101 kPa, Liquid

CCCCn1cc[n+](C)c1.C[C@H](N)C(=O)[O-] [3-butyl-1-methyl-1H-imidazolium L-alaninate]
Conditions | mass density, [2] [kg/m3] | refractive index, [1] | viscosity, [2] [mPa·s]
298.15 K | 1080.2 ± 1 | 1.5184 ± 0.0004 | 78.3 ± 1.4
303.15 K | 1076.5 ± 1 | 1.5168 ± 0.0004 | 59.77 ± 0.79
308.15 K | 1074.2 ± 1 | 1.5153 ± 0.0004 | 47.03 ± 0.63
313.15 K | 1071.1 ± 1 | 1.5135 ± 0.0004 | 37.95 ± 0.53

OCc1ccccc1 [benzenemethanol]
Conditions | mass density, [2] [kg/m3] | refractive index, [1] | viscosity, [2] [mPa·s]
298.15 K | 1041.64 ± 1 | 1.5371 ± 0.0004 | 5.55 ± 0.21
303.15 K | 1037.42 ± 1 | 1.5349 ± 0.0004 | 4.675 ± 0.21
308.15 K | 1033.84 ± 1 | 1.5323 ± 0.0004 | 4.01 ± 0.2
313.15 K | 1030.43 ± 1 | 1.5301 ± 0.0004 | 3.522 ± 0.2

CCCCn1cc[n+](C)c1.C[C@H](N)C(=O)[O-] [3-butyl-1-methyl-1H-imidazolium L-alaninate] + CO
Conditions | mass density, [3] [kg/m3] | refractive index, [4] | viscosity, [3] [mPa·s]
298.15 K, x1 = 0.0986 | 906.31 ± 1.1 | 1.3952 ± 0.0007 | 1.824 ± 0.29
298.15 K, x1 = 0.2015 | 968.55 ± 1.1 | 1.438 ± 0.0007 | 2.979 ± 0.39
298.15 K, x1 = 0.2837 | 998.11 ± 1.1 | 1.4595 ± 0.0007 | 4.892 ± 0.61
298.15 K, x1 = 0.3985 | 1024.98 ± 1.1 | 1.4787 ± 0.0007 | 8.963 ± 1.1
298.15 K, x1 = 0.5105 | 1042.62 ± 1.1 | 1.4914 ± 0.0007 | 15.2 ± 1.9
298.15 K, x1 = 0.6035 | 1053.47 ± 1.1 | 1.4994 ± 0.0007 | 22.23 ± 2.8
298.15 K, x1 = 0.7011 | 1062.38 ± 1.1 | 1.5058 ± 0.0007 | 31.13 ± 3.9
298.15 K, x1 = 0.8152 | 1070.44 ± 1.1 | 1.5111 ± 0.0007 | 45.03 ± 5.6
298.15 K, x1 = 0.9139 | 1076 ± 1.1 | 1.5147 ± 0.0007 | 60.33 ± 6.1
303.15 K, x1 = 0.0986 | 901.65 ± 1.1 | 1.3926 ± 0.0007 | 1.753 ± 0.28
303.15 K, x1 = 0.2015 | 963.93 ± 1.1 | 1.435 ± 0.0007 | 2.76 ± 0.37
303.15 K, x1 = 0.2837 | 993.59 ± 1.1 | 1.4564 ± 0.0007 | 3.714 ± 0.47
303.15 K, x1 = 0.3985 | 1020.56 ± 1.1 | 1.4755 ± 0.0007 | 6.403 ± 0.8
303.15 K, x1 = 0.5105 | 1038.31 ± 1.1 | 1.4883 ± 0.0007 | 10.73 ± 1.3
303.15 K, x1 = 0.6035 | 1049.27 ± 1.1 | 1.4964 ± 0.0007 | 16.01 ± 2
303.15 K, x1 = 0.7011 | 1058.3 ± 1.1 | 1.5029 ± 0.0007 | 22.63 ± 2.8
303.15 K, x1 = 0.8152 | 1066.5 ± 1.1 | 1.5087 ± 0.0007 | 32.91 ± 4.1
303.15 K, x1 = 0.9139 | 1072.2 ± 1.1 | 1.5126 ± 0.0007 | 45.02 ± 5.6
308.15 K, x1 = 0.0986 | 896.59 ± 1.1 | 1.3901 ± 0.0007 | 1.829 ± 0.29
308.15 K, x1 = 0.2015 | 959.34 ± 1.1 | 1.4323 ± 0.0007 | 2.349 ± 0.33
308.15 K, x1 = 0.2837 | 989.32 ± 1.1 | 1.4533 ± 0.0007 | 3.429 ± 0.44
308.15 K, x1 = 0.3985 | 1016.81 ± 1.1 | 1.4723 ± 0.0007 | 5.513 ± 0.68
308.15 K, x1 = 0.5105 | 1034.85 ± 1.1 | 1.485 ± 0.0007 | 9.168 ± 1.1
308.15 K, x1 = 0.6035 | 1046.07 ± 1.1 | 1.493 ± 0.0007 | 13.4 ± 1.7
308.15 K, x1 = 0.7011 | 1055.34 ± 1.1 | 1.5 ± 0.0007 | 18.29 ± 2.3
308.15 K, x1 = 0.8152 | 1063.85 ± 1.1 | 1.5059 ± 0.0007 | 26.27 ± 3.3
308.15 K, x1 = 0.9139 | 1069.71 ± 1.1 | 1.5105 ± 0.0007 | 35.3 ± 4.4
313.15 K, x1 = 0.0986 | 892.46 ± 1.1 | 1.3881 ± 0.0007 | 1.34 ± 0.25
313.15 K, x1 = 0.2015 | 955.28 ± 1.1 | 1.4297 ± 0.0007 | 2.113 ± 0.31
313.15 K, x1 = 0.2837 | 985.35 ± 1.1 | 1.4502 ± 0.0007 | 2.792 ± 0.38
313.15 K, x1 = 0.3985 | 1012.89 ± 1.1 | 1.4692 ± 0.0007 | 5.197 ± 0.65
313.15 K, x1 = 0.5105 | 1031.1 ± 1.1 | 1.4817 ± 0.0007 | 8.3 ± 1
313.15 K, x1 = 0.6035 | 1042.42 ± 1.1 | 1.4898 ± 0.0007 | 11.91 ± 1.5
313.15 K, x1 = 0.7011 | 1051.82 ± 1.1 | 1.497 ± 0.0007 | 15.87 ± 2
313.15 K, x1 = 0.8152 | 1060.49 ± 1.1 | 1.5034 ± 0.0007 | 21.92 ± 2.7
313.15 K, x1 = 0.9139 | 1066.51 ± 1.1 | 1.5082 ± 0.0007 | 29.18 ± 3.6
